What was measured:
[1] = molecular target: T1, [SALL4 ZF2]-[compound]-[CRBN/DDB1] ternary complex (Homo sapiens, UniProt Q96SW2+Q9UJQ4); assay: AlphaLISA assay for off-target recruitment detection, SALL4 ZF2; format: binding; details: 1 μM compound; normalized to Lenalidomide; read-out: Normalized ternary complex response, SALL4 ZF2
T1 construct: SALL4 ZF2
Summary of the method: (§1)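 Neo-substrate with 40 μg/ml donor beads and 200 nM 6×His-CRBN/DDB1 with 40 μg/ml anti-His acceptor beads were each prepared in PBS pH 7.4 with Tween-20 and 1 mM DTT, preincubated 30 min at RT, then mixed. Compounds at 2% DMSO were incubated 30 min at 25 °C, read at 680/615 nm, and normalised between DMSO background and reference glue maximum.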

[2] = molecular target: T2, [GSPT1]-[compound of formula (I)]-[CRBN/DDB1] complex (Homo sapiens, UniProt P15170+Q96SW2); assay: AlphaLISA ternary complex formation assay (GSPT1); format: binding; details: 0.5 h; 1 μM compound; normalized to reference compound CC-885; read-out: Normalized AlphaLISA ternary complex average signal at 1 μM molecule
Summary of the method: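 Biotinylated GSPT1 on streptavidin donor beads and 6×His-CRBN/DDB1 on anti-His acceptor beads (each 200 nM before mixing) in HBS pH 7.4 with 0.1% Tween-20 and 1 mM DTT, 2% DMSO final, 30 min at 25 °C. AlphaLISA luminescence is normalized between DMSO background and the reference compound's maximum.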

[3] = molecular target: T3, [IKZF2 ZF2]-[compound]-[CRBN/DDB1] ternary complex (Homo sapiens, UniProt Q96SW2+Q9UKS7); assay: AlphaLISA assay for off-target recruitment detection, IKZF2 ZF2; format: binding; details: 1 μM compound; normalized to Helios modulator; read-out: Normalized ternary complex response, IKZF2 ZF2
T3 construct: IKZF2 ZF2
Summary of the method: as §1

[4] = molecular target: [CK1α]-[compound]-[CRBN/DDB1] ternary complex (Homo sapiens, UniProt P48729+Q96SW2); assay: AlphaLISA assay for off-target recruitment detection, CK1α; format: binding; details: 1 μM compound; normalized to FPFT-2216; read-out: Normalized ternary complex response, CK1α
Summary of the method: as §1

[5] = molecular target: T2, [GSPT1]-[compound of formula (I)]-[CRBN/DDB1] complex; assay: HTRF ternary complex assay (GSPT1); format: binding; details: read-out: HTRF ternary complex Average pEC50 by molecule (converted)
Summary of the method: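 Compounds in dose-response were incubated 180 min at 25 °C with 48 nM GSPT1 and 52.8 nM 6×His-CRBN/DDB1, plus Streptavidin-Eu cryptate and anti-6×His-d2, in buffer with 1 mM DTT and 0.5% DMSO. TR-FRET (665/620) was normalized to DMSO background and fitted with a Hill slope model for EC50/pEC50.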

GSPT1-HiBiT HEK293 cells = assay: Cell Viability-CTG assay accompanying the Nano-Glo HiBiT assay; format: cell-based; details: 6 hours treatment, viability of GSPT1-HiBiT HEK293 cells
Protocol: In parallel, the Cell Viability-CTG assay was performed to ensure that the potential decrease of the luminescent signal observed in the Nano-Glo HiBiT assay is a result of protein degradation and not a result of decreasing cell viability. For CTG assay accompanying the Nano-Glo HiBiT assay, cells were cultured, seeded and treated as described above. After 6 hours of incubation (37° C., 5% CO2), plates were removed from the incubator and let to equilibrate to RT. Luminescent signal detection was conducted using the CellTiter-Glo Lumiescent Cell Viability Assay (Promega, cat. nr G7573). 10 μL of the Cell Titer Glo reagent was added per well, plates were shaken to facilitate lysis (460 rpm, 4 min, RT) and incubated in the dark for the following 8 min. Luminescence was read using the CLARIOstar multimode plate reader (BMG LABTECH). The raw data (the relative luminescence unit values, RLU) were uploaded under the relevant protocol and analysed in CDDVault data management platform, in a manner similar to the description above. The Mean Minimum values were calculated in CDDVault using non-linear regression and appropriate equations.

Sequence of [CK1α]-[compound]-[CRBN/DDB1] ternary complex (P48729 whole entry): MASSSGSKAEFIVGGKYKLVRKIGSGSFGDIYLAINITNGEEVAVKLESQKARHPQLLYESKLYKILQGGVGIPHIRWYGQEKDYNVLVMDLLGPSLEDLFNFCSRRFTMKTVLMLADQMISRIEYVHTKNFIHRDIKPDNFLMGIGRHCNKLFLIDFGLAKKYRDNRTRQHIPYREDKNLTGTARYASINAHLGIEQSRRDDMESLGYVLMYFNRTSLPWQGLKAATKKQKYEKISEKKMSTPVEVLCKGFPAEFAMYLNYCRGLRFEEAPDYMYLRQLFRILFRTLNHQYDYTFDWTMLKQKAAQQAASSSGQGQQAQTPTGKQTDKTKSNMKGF
Sequence of [CK1α]-[compound]-[CRBN/DDB1] ternary complex (Q96SW2 whole entry): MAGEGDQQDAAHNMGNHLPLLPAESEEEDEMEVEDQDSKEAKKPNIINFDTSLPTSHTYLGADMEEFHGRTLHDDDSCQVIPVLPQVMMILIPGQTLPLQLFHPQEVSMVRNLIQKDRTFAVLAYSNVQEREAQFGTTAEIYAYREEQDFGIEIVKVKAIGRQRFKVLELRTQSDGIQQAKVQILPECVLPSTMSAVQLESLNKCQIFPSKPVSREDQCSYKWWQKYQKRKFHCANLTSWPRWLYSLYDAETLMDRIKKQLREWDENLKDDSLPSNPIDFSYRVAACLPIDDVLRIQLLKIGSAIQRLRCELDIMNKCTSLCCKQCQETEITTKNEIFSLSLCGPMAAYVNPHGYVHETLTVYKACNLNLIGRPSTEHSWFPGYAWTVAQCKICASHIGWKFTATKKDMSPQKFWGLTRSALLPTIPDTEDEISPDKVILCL
Sequence of [CK1α]-[compound]-[CRBN/DDB1] ternary complex (Q16531 whole entry partner): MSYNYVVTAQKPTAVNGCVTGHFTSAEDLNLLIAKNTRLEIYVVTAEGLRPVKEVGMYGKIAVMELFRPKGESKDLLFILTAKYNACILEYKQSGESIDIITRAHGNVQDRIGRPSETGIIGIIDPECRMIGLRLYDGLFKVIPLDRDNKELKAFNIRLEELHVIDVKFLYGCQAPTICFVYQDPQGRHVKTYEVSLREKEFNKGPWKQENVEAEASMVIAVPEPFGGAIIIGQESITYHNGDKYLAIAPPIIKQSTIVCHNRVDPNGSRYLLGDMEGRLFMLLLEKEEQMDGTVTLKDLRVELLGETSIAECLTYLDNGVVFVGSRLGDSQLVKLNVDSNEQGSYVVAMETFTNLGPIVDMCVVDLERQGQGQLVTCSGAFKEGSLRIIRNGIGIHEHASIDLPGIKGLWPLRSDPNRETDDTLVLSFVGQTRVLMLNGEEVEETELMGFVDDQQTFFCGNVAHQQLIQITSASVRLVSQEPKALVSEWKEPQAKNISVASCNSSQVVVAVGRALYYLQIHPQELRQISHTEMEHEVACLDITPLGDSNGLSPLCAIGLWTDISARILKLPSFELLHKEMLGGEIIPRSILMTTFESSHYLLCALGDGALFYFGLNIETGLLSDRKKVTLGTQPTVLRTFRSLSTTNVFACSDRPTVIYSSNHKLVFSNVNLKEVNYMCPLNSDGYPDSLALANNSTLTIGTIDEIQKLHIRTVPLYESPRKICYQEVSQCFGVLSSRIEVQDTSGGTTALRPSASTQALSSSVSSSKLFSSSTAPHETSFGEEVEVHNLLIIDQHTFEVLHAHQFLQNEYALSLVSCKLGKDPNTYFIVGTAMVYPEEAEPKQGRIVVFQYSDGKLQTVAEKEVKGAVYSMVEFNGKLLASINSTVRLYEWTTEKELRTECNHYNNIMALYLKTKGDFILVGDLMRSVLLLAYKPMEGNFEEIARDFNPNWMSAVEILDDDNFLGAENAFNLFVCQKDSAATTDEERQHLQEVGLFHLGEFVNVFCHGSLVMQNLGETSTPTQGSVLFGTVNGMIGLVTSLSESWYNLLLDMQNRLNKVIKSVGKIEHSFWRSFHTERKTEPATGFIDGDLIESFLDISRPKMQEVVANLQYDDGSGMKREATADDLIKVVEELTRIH
T3 sequence (Q9UKS7 140-162 limits assumed): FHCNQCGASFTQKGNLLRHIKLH
T3 sequence (Q96SW2 whole entry): as the sequence (Q96SW2 whole entry) above
T3 sequence (Q16531 whole entry partner): as the sequence (Q16531 whole entry partner) above
T1 sequence (Q9UJQ4 410-432 limits assumed): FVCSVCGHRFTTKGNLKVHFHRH
T1 sequence (Q96SW2 whole entry): as the sequence (Q96SW2 whole entry) above
T1 sequence (Q16531 whole entry partner): as the sequence (Q16531 whole entry partner) above
T2 sequence (P15170 whole entry): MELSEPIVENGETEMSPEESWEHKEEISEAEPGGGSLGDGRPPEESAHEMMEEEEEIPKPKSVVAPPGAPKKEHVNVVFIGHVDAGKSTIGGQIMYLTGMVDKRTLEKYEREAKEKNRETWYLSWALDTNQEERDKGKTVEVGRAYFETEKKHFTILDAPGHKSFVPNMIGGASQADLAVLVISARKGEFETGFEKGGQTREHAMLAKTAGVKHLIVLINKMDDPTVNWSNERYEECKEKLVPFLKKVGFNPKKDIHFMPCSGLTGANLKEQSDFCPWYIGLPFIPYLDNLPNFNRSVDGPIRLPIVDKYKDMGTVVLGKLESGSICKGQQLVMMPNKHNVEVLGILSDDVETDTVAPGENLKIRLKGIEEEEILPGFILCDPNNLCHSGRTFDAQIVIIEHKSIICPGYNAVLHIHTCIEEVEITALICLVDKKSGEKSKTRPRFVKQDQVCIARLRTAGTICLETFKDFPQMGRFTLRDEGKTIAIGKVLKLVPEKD
T2 sequence (Q96SW2 whole entry): as the sequence (Q96SW2 whole entry) above
T2 sequence (Q16531 whole entry partner): as the sequence (Q16531 whole entry partner) above

| activation at 1 µM [1] | activation at 1 µM [2] | activation at 1 µM [3] | activation at 1 µM [4] | EC50 [5] | SMILES | CTG assay Mean minimum (GSPT1-HiBiT HEK293 cells) |
| --- | --- | --- | --- | --- | --- | --- |
| < 10% | 10 to 50% | < 10% | < 10% | < 316 nM | Cc1ccc(NC(=O)OCc2ccc3c(C)c(C4CCC(=O)NC4=O)c(C)nc3c2)cc1Cl (stereo not drawn) [Compound 44, (3-(2,6-dioxopiperidin-3-yl)-2,4-dimethylquinolin-7-yl)methyl (3-chloro-4-methylphenyl)carbamate] | ++++ (++++≥75% of viability of the HiBiT-GSPT1 HEK293 cells) |
| < 10% | 10 to 50% | < 10% | < 10% | 316 to 3160 nM | COc1ccc(NC(=O)OCc2ccc3cc(C4CCC(=O)NC4=O)c(C)nc3c2)nn1 (stereo not drawn) [Compound 45, (3-(2,6-dioxopiperidin-3-yl)-2-methylquinolin-7-yl)methyl (6-methoxypyridazin-3-yl)carbamate] | ++++ (++++≥75% of viability of the HiBiT-GSPT1 HEK293 cells) |
| < 10% | 10 to 50% | < 10% | < 10% | 316 to 3160 nM | Cc1nc2cc(COC(=O)Nc3cccc(-c4ccccc4)c3)ccc2cc1C1CCC(=O)NC1=O (stereo not drawn) [Compound 46, (3-(2,6-dioxopiperidin-3-yl)-2-methylquinolin-7-yl)methyl [1,1′-biphenyl]-3-ylcarbamate] | ++++ (++++≥75% of viability of the HiBiT-GSPT1 HEK293 cells) |
| < 10% | 10 to 50% | < 10% | < 10% | 316 to 3160 nM | Cc1ccc(NC(=O)OCc2cc3nc(C)c(C4CCC(=O)NC4=O)cc3cc2F)cc1Cl (stereo not drawn) [Compound 49, (3-(2,6-dioxopiperidin-3-yl)-6-fluoro-2-methylquinolin-7-yl)methyl (3-chloro-4-methylphenyl)carbamate] | ++++ (++++≥75% of viability of the HiBiT-GSPT1 HEK293 cells) |
| < 10% | > 50% | < 10% | < 10% | 316 to 3160 nM | Cc1ccc(NC(=O)OCc2ccc3cc(C4CCC(=O)NC4=O)c(C)nc3c2F)cc1Cl (stereo not drawn) [Compound 50, (3-(2,6-dioxopiperidin-3-yl)-8-fluoro-2-methylquinolin-7-yl)methyl (3-chloro-4-methylphenyl)carbamate] | ++++ (++++≥75% of viability of the HiBiT-GSPT1 HEK293 cells) |
| ≥ 50% | 10 to 50% | 10 to 25% | < 10% | < 316 nM | Cc1ccc(NC(=O)NCc2ccc3nc(C)c(N4CCC(=O)NC4=O)cc3c2)cc1Cl [Compound 51, 1-(3-chloro-4-methylphenyl)-3-((3-(2,4-dioxotetrahydropyrimidin-1(2H)-yl)-2-methylquinolin-6-yl)methyl)urea] | ++++ (++++≥75% of viability of the HiBiT-GSPT1 HEK293 cells) |
| < 10% | > 50% | < 10% | < 10% | 316 to 3160 nM | Cc1ccc(NC(=O)OCc2ccc3cc(C4CCC(=O)NC4=O)c(C)nc3c2)c(Cl)c1Cl (stereo not drawn) [Compound 54, (3-(2,6-dioxopiperidin-3-yl)-2-methylquinolin-7-yl)methyl (2,3-dichloro-4-methylphenyl)carbamate] | ++++ (++++≥75% of viability of the HiBiT-GSPT1 HEK293 cells) |
| < 10% | > 50% | < 10% | < 10% | 316 to 3160 nM | Cc1nc2cc(COC(=O)NC3CCC(C(C)(C)C)CC3)ccc2cc1C1CCC(=O)NC1=O (stereo not drawn) [Compound 55, (3-(2,6-dioxopiperidin-3-yl)-2-methylquinolin-7-yl)methyl (4-(tert-butyl)cyclohexyl)carbamate] | ++++ (++++≥75% of viability of the HiBiT-GSPT1 HEK293 cells) |
| < 10% | > 50% | < 10% | < 10% | 316 to 3160 nM | Cc1ncc(NC(=O)OCc2ccc3cc(C4CCC(=O)NC4=O)c(C)nc3c2)cc1Cl (stereo not drawn) [Compound 58, (3-(2,6-dioxopiperidin-3-yl)-2-methylquinolin-7-yl)methyl (5-chloro-6-methylpyridin-3-yl)carbamate] | ++++ (++++≥75% of viability of the HiBiT-GSPT1 HEK293 cells) |
| < 10% | > 50% | < 10% | < 10% | < 316 nM | COc1cnc(NC(=O)OCc2ccc3cc(C4CCC(=O)NC4=O)c(C)nc3c2)cn1 (stereo not drawn) [Compound 59, (3-(2,6-dioxopiperidin-3-yl)-2-methylquinolin-7-yl)methyl (5-methoxypyrazin-2-yl)carbamate] | ++++ (++++≥75% of viability of the HiBiT-GSPT1 HEK293 cells) |
| < 10% | 10 to 50% | < 10% | < 10% | < 316 nM | Cc1nc2cc(CNC(=O)Nc3cc(C(C)(C)C)no3)ccc2cc1N1CCC(=O)NC1=O [Compound 64, 1-(3-(tert-butyl)isoxazol-5-yl)-3-((3-(2,4-dioxotetrahydropyrimidin-1(2H)-yl)-2-methylquinolin-7-yl)methyl)urea] | ++++ (++++≥75% of viability of the HiBiT-GSPT1 HEK293 cells) |
| 25 to 50% | > 50% | 10 to 25% | 10 to 25% | 316 to 3160 nM | Cc1nc2ccc(COC(=O)Nc3cc(C(C)(C)C)no3)cc2cc1N1CCC(=O)NC1=O [Compound 66, (3-(2,4-dioxotetrahydropyrimidin-1(2H)-yl)-2-methylquinolin-6-yl)methyl (3-(tert-butyl)isoxazol-5-yl)carbamate] | ++++ (++++≥75% of viability of the HiBiT-GSPT1 HEK293 cells) |
| 25 to 50% | > 50% | 25 to 50% | 10 to 25% | < 316 nM | Cc1nc2ccc(CNC(=O)Nc3cc(C(C)(C)C)no3)cc2cc1N1CCC(=O)NC1=O [Compound 67, 1-(3-(tert-butyl)isoxazol-5-yl)-3-((3-(2,4-dioxotetrahydropyrimidin-1(2H)-yl)-2-methylquinolin-6-yl)methyl)urea] | ++++ (++++≥75% of viability of the HiBiT-GSPT1 HEK293 cells) |

| SMILES | activation at 1 µM [1] | activation at 1 µM [2] | activation at 1 µM [3] | activation at 1 µM [4] | EC50 [5] | CTG assay Mean minimum (GSPT1-HiBiT HEK293 cells) |
| --- | --- | --- | --- | --- | --- | --- |
| Cc1nc2cc(COC(=O)Nc3cc(C(F)(F)F)n[nH]3)ccc2cc1C1CCC(=O)NC1=O (stereo not drawn) [Compound 69, (3-(2,6-dioxopiperidin-3-yl)-2-methylquinolin-7-yl)methyl (3-(trifluoromethyl)-1H-pyrazol-5-yl)carbamate] | < 10% | > 50% | < 10% | < 10% | 316 to 3160 nM | ++++ (++++≥75% of viability of the HiBiT-GSPT1 HEK293 cells) |
| Cc1nc2cc(COC(=O)Nc3cc(C(C)(C)C)on3)ccc2cc1C1CCC(=O)NC1=O (stereo not drawn) [Compound 70, (3-(2,6-dioxopiperidin-3-yl)-2-methylquinolin-7-yl)methyl (5-(tert-butyl)isoxazol-3-yl)carbamate] | < 10% | > 50% | < 10% | < 10% | < 316 nM | ++++ (++++≥75% of viability of the HiBiT-GSPT1 HEK293 cells) |

— patent US20260232682A1, “GSPT1 DEGRADER COMPOUNDS” (Captor Therapeutics S.A., priority 2023, published 2026)
